20 compounds from ChEMBL document CHEMBL1125804, “Antitumor agents. 120. New 4-substituted benzylamine and benzyl ether derivatives of 4'-O-demethylepipodophyllotoxin as potent inhibitors of human DNA topoisomerase II” (1991) can be followed below.

In test [1] the test system is Nucleic Acid. The test is described as follows: % complex formation of cellular protein -DNA complex at a concentration of 10 uM. In kind it is functional. The conditions noted are these: Homo sapiens.
Test [2] concerns the target DNA topoisomerase II (Homo sapiens) (UniProt P11388+Q02880). Put plainly: Inhibition of human DNA topoisomerase II. In kind it is protein assay.
Test [3] is described as follows: 50% reduction in KB cell number after a 3-day incubation. Particulars: Homo sapiens, 72 h, read-out: ID50 (the source's name). In kind it is functional.
Test [4] concerns Nucleic Acid. The test is described as follows: Compound was tested for the % complex formation of cellular protein -DNA complex at a concentration of 10 uM. In kind it is functional. Particulars: Homo sapiens.
A short description of test [5]: Compound was tested for the concentration to afford 50% reduction in KB cell number after a 3-day incubation. In kind it is functional. Particulars: Homo sapiens, 72 h, read-out: ID50 (the source's name).

As to `COc1cc([C@@H]2c3cc4c(cc3[C@@H](NCc3ccc(F)cc3)[C@H]3COC(=O)[C@H]23)OCO4)cc(OC)c1O`, the Complex formation in test [1] worked out at 169%. The same compound had an ID50 in test [2] of 50 µM. Moreover, in test [3], the IC50 is greater than 4 µM.

The compound `COc1cc([C@@H]2c3cc4c(cc3[C@@H](NCc3ccccc3)[C@H]3COC(=O)[C@H]23)OCO4)cc(OC)c1O` returned a Complex formation in test [1] of 181%. In addition, in test [2], the ID50 turned out to be 25 µM. Further, the IC50 in test [3] is 2.2 µM.

In the case of `COc1cc([C@@H]2c3cc4c(cc3[C@@H](Nc3ccc(N)cc3)[C@H]3COC(=O)[C@H]23)OCO4)cc(OC)c1O`, the Complex formation in test [1] worked out at 330%. In addition, the IC50 in test [3] amounted to 0.8 µM.

`COc1cc([C@@H]2c3cc4c(cc3[C@@H](Nc3ccc(F)cc3)[C@H]3COC(=O)[C@H]23)OCO4)cc(OC)c1O` registered a Complex formation in test [1] of 213%. In test [3], the IC50 stood at 0.24 µM.

For `COc1cc([C@@H]2c3cc4c(cc3[C@@H](NCc3cccc(Cl)c3)[C@H]3COC(=O)[C@H]23)OCO4)cc(OC)c1O`, in test [1], the Complex formation amounted to 159%. The compound also gave an ID50 in test [2] of 50 µM. Further, in test [3], the IC50 was 1.2 µM.

Consider `COc1cc(CN[C@@H]2c3cc4c(cc3[C@@H](c3cc(OC)c(O)c(OC)c3)[C@H]3C(=O)OC[C@@H]32)OCO4)cc(OC)c1`, for which, in test [1], the Complex formation was found to be 144%. Further, the ID50 in test [2] worked out at 100 µM. Moreover, the IC50 in test [3] came out at 1.7 µM.

In turn, `COc1cc([C@@H]2c3cc4c(cc3[C@@H](OCc3ccc([N+](=O)[O-])cc3)[C@H]3COC(=O)[C@H]23)OCO4)cc(OC)c1O` showed a Complex formation in test [1] of less than 25%. Besides, the ID50 in test [2] was greater than 100 µM. Further, in test [3], the IC50 stood at 1.9 µM.

In test [1], `COc1cc([C@@H]2c3cc4c(cc3[C@@H](NCc3cccc(F)c3)[C@H]3COC(=O)[C@H]23)OCO4)cc(OC)c1O` showed a Complex formation of 216%. Further, the ID50 in test [2] was determined as 25 µM. Moreover, in test [3], the IC50 was determined as 3 µM.

In the case of `COc1cc([C@@H]2c3cc4c(cc3[C@@H](NCc3cccc(C#N)c3)[C@H]3COC(=O)[C@H]23)OCO4)cc(OC)c1O`, the Complex formation in test [1] was determined as 225%. Also, in test [2], the ID50 stood at 25 µM. Moreover, in test [3], the IC50 was less than 0.4 µM.

In test [1], `COc1cc([C@@H]2c3cc4c(cc3[C@@H](NCc3ccc([N+](=O)[O-])cc3)[C@H]3COC(=O)[C@H]23)OCO4)cc(OC)c1O` yielded a Complex formation of 216%. In test [2], this compound yielded an ID50 of 50 µM. In test [3], the IC50 was determined as 0.4 µM.

The compound `COc1cc([C@@H]2c3cc4c(cc3[C@@H](OCc3ccccc3)[C@H]3COC(=O)[C@H]23)OCO4)cc(OC)c1O` displayed a Complex formation in test [1] of less than 25%. In test [2], the ID50 was greater than 100 µM. Moreover, the IC50 in test [3] worked out at 2.4 µM.

On to `COc1cc([C@@H]2c3cc4c(cc3[C@@H](NCc3ccc(C(F)(F)F)cc3)[C@H]3COC(=O)[C@H]23)OCO4)cc(OC)c1O`, for which the Complex formation in test [1] was determined as 99%. In addition, the ID50 in test [2] is 100 µM. For the same compound, the IC50 in test [3] was found to be 2.3 µM.

In test [1], `COc1cc([C@@H]2c3cc4c(cc3[C@@H](NCc3ccccc3[N+](=O)[O-])[C@H]3COC(=O)[C@H]23)OCO4)cc(OC)c1O` gave a Complex formation of 144%. In test [2], this compound came in with an ID50 of 50 µM. Further, in test [3], the IC50 was 1.8 µM.

`COc1cc([C@@H]2c3cc4c(cc3[C@@H](NCc3cccc([N+](=O)[O-])c3)[C@H]3COC(=O)[C@H]23)OCO4)cc(OC)c1O` had a Complex formation in test [1] of 130%. In test [2], this compound yielded an ID50 of 25 µM. Besides, the IC50 in test [3] was less than 0.4 µM.

In test [1], `COc1cc([C@@H]2c3cc4c(cc3[C@@H](NCc3ccccc3F)[C@H]3COC(=O)[C@H]23)OCO4)cc(OC)c1O` came in with a Complex formation of 126%. Also, the ID50 in test [2] was determined as 100 µM. The IC50 in test [3] is 1.9 µM.

Take `COc1cc([C@@H]2c3cc4c(cc3[C@@H](NCc3ccccc3N)[C@H]3COC(=O)[C@H]23)OCO4)cc(OC)c1O`: in test [1], the Complex formation turned out to be 184%. In test [2], this compound gave an ID50 of 25 µM. For the same compound, the IC50 in test [3] is less than 0.4 µM.

In turn, `COc1cc([C@@H]2c3cc4c(cc3[C@@H](NCc3ccc(C#N)cc3)[C@H]3COC(=O)[C@H]23)OCO4)cc(OC)c1O` registered a Complex formation in test [1] of 284%. The same compound showed an ID50 in test [2] of 25 µM. Also, in test [3], the IC50 was less than 0.4 µM.

In test [4], `COc1cc([C@@H]2c3cc4c(cc3[C@@H](Nc3ccc([N+](=O)[O-])cc3)[C@H]3COC(=O)[C@H]23)OCO4)cc(OC)c1O` yielded a Complex formation of 323%. In test [5], the IC50 is 0.49 µM.

Regarding `COc1cc([C@@H]2c3cc4c(cc3[C@@H](NCc3cccc(N)c3)[C@H]3COC(=O)[C@H]23)OCO4)cc(OC)c1O`, in test [1], the Complex formation amounted to 191%. This compound also displayed an ID50 in test [2] of 25 µM. Moreover, the IC50 in test [3] is less than 0.4 µM.

As for `COc1cc([C@@H]2c3cc4c(cc3[C@@H](O[C@@H]3O[C@@H]5CO[C@@H](C)O[C@H]5[C@H](O)[C@H]3O)[C@H]3COC(=O)[C@H]23)OCO4)cc(OC)c1O` [ETOPOSIDE], the Complex formation in test [4] stood at 100%. Further, the IC50 in test [3] is 0.2 µM.
